Measurements taken from patent US10221179B2, “Substituted pyrazoloquinazolinones and pyrroloquinazolinones as allosteric modulators of group II metabotropic glutamate receptors” (DOMAIN THERAPEUTICS, priority 2014, dated 2019).

Key:
human mGluR2 (hmGluR2) = target: T1, human mGluR2 (hmGluR2) (Homo sapiens, UniProt Q14416); test: Ca++ functional assay, human mGluR2 transiently over-expressed in HEK-293 cells (agonist and negative allosteric modulator modes); format: cell-based; details: glutamate at EC80, intracellular calcium (Fluo4AM), read-out: hmGluR2 negative allosteric modulator activity IC50
T1 construct: expressed in transfected cells; host or cells: HEK-293 cells, transient co-transfection by electroporation
Description: Example 127: Human mGluR2 and mGluR3 Evaluation Using Ca^++ Functional Assay
Examples of the present invention were tested successively for their agonist and negative allosteric modulator activities on human mGluR2 (hmGluR2) and mGluR3 (hmGluR3) transiently over-expressed in HEK-293 cells.
Cell Culture and Transfection
HEK-293 cells are maintained in Modified Eagle's Medium supplemented with 10% Foetal Calf Serum, 1% Penicillin/Streptomycin and 1% non-essential amino acids at 37° C./5% CO2.
Cells are co-transfected by electroporation with four DNA plasmids encoding hmGluR2 or hmGluR3, a chimeric G protein allowing redirection of the activation signal to intracellular calcium pathway (Brabet I et al., Neuropharmacology 37(8), 1043-51, 1998), and two glutamate transporters minimizing receptor desensitization by endogenous glutamate. After transfection, cells are cultured for 24 h at 37° C./5% CO2.
Calcium Assay IC50 Determination
Receptor activity is detected by changes in intracellular calcium measured using the fluorescent Ca^2+ sensitive dye, Fluo4AM (Molecular Probes).
On the day of the assay, culture medium is aspirated and replaced during 3 hours by medium without serum supplemented with 1% Glutamax, 1% Penicillin/Streptomycin and 1% non-essential amino acids. Then, cells are washed with freshly prepared buffer B (HBSS 1×(PAA), Hepes 20 mM, MgSO4-7H2O 1 mM, Na2CO3 3.3 mM, CaCl2-2H2O 1.3 mM, 0.1% BSA, Probenecid 2.5 mM) and loaded at 37° C. in 5% CO2 for 1.5 hours with buffer B containing 1 μM Fluo4AM, 0.1 mg/mL Pluronic Acid, 7 μg/mL Glutamate Pyruvate Transaminase and 2 mM sodium pyruvate. Afterwards cells are washed twice with buffer B. Then cells are detached using StemPro Accutase (Fischer Scientific), resuspended in buffer B and seeded in 384 well plate at a density of 30,000 cells per well. Addition of compounds and intracellular Ca^2+ measurements (excitation 485 nm, emission 525 nm) are performed by the fluorescence microplate reader FLIPRTetra (Molecular Devices).
Agonist and negative allosteric modulator activities of compounds are consecutively evaluated on the same cell plate. […] Then, cells are stimulated by an EC80 glutamate concentration and fluorescence is recorded for additional 3 minutes. EC80 glutamate concentration is the concentration giving 80% of the maximal glutamate response. Agonist or negative allosteric modulator activity(ies) are evaluated in comparison to basal signals evoked by buffer B or EC80 glutamate alone, respectively.
For IC50 determination, a dose-response test is performed using 20 concentrations (ranging over 6 logs) of each compound. Dose-response curves are fitted using the sigmoidal dose-response (variable slope) analysis in GraphPad Prism program (Graph Pad Inc) and IC50 of negative allosteric modulator activity is calculated. Dose-response experiments are performed in duplicate, two times independently.

T1 sequence (Q14416 19-872): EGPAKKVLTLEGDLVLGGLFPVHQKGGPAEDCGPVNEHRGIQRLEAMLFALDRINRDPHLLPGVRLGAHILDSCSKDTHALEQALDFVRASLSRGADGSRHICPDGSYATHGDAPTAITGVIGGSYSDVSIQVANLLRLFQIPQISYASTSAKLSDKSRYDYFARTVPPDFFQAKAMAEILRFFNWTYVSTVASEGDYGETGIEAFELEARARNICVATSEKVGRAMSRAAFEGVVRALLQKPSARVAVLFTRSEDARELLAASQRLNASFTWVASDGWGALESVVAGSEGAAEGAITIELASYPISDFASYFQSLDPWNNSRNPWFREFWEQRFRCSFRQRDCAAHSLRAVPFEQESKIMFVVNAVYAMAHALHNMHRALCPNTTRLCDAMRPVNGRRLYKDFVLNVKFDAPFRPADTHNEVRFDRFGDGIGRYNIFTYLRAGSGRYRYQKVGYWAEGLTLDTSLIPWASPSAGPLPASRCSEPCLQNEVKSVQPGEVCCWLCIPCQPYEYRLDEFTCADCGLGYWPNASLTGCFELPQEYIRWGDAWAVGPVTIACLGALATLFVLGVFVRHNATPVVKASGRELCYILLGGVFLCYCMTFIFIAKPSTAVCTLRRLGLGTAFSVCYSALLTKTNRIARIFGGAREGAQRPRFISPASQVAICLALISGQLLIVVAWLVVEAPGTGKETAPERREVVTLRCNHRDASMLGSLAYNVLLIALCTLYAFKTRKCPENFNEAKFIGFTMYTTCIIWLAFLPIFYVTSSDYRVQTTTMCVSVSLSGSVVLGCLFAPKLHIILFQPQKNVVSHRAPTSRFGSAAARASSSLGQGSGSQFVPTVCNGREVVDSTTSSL

Row | IC50 (human mGluR2 (hmGluR2)) | melting point | SMILES
1 | < 1 µM | 232 to 244 °C | Cn1c(=O)c2ccccc2n2nc(-c3ccnc(C(F)(F)F)c3)cc12 [Example 26, 4-Methyl-2-(2-trifluoromethyl-pyridin-4-yl)-4H-pyrazolo[1,5-a]quinazolin-5-one]
2 | < 1 µM | 232 to 237 °C | [2H]C([2H])([2H])n1c(=O)c2ccccc2n2nc(-c3ccnc(C(F)(F)F)c3)cc12 [Example 27, 4-Methyl(D3)-2-(2-trifluoromethyl-pyridin-4-yl)-4H-pyrazolo[1,5-a]quinazolin-5-one]
3 | < 1 µM | 214 to 220 °C | CCn1c(=O)c2ccccc2n2nc(-c3ccnc(C(F)(F)F)c3)cc12 [Example 28, 4-Ethyl-2-(2-trifluoromethyl-pyridin-4-yl)-4H-pyrazolo[1,5-a]quinazolin-5-one]
4 | < 1 µM | 192 to 196 °C | Cn1c(=O)c2ccccc2n2nc(-c3ccnc(C(F)F)c3)cc12 [Example 31, 4-Methyl-2-(2-difluoromethyl-pyridin-4-yl)-4H-pyrazolo[1,5-a]quinazolin-5-one]
5 | < 1 µM | 196 to 207 °C | Cn1c(=O)c2ccccc2n2nc(-c3ccnc(C(C)(F)F)c3)cc12 [Example 32, 2-[2-(1,1-Difluoro-ethyl)-pyridin-4-yl]-4-methyl-4H-pyrazolo[1,5-a]quinazolin-5-one]
6 | < 1 µM | 198 to 205 °C | [2H]C([2H])([2H])n1c(=O)c2ccccc2n2nc(-c3ccnc(C(C)(F)F)c3)cc12 [Example 33, 2-[2-(1,1-Difluoro-ethyl)-pyridin-4-yl]-4-methyl(D3)-4H-pyrazolo[1,5-a]quinazolin-5-one]
7 | < 1 µM | 215 to 218 °C | Cc1ccc2c(c1)c(=O)n(C)c1cc(-c3ccnc(C(F)(F)F)c3)nn21 [Example 34]
8 | < 1 µM | 201 to 205 °C | COc1ccc2c(c1)c(=O)n(C)c1cc(-c3ccnc(C(F)(F)F)c3)nn21 [Example 36]
9 | < 1 µM | > 250 °C | Cn1c(=O)c2cc(F)ccc2n2nc(-c3ccnc(C(F)(F)F)c3)cc12 [Example 38]
10 | < 1 µM | > 250 °C | CNc1ccc2c(c1)c(=O)n(C)c1cc(-c3ccnc(C(F)(F)F)c3)nn21 [Example 40, 4-Methyl-7-methylamino-2-(2-trifluoromethyl-pyridin-4-yl)-4H-pyrazolo[1,5-a]quinazolin-5-one]
11 | < 1 µM | > 250 °C | [2H]C([2H])([2H])Nc1ccc2c(c1)c(=O)n(C)c1cc(-c3ccnc(C(F)(F)F)c3)nn21 [Example 41, 4-Methyl-7-methyl(D3)amino-2-(2-trifluoromethyl-pyridin-4-yl)-4H-pyrazolo[1,5-a]quinazolin-5-one]
12 | < 1 µM | > 250 °C | CN(C)c1ccc2c(c1)c(=O)n(C)c1cc(-c3ccnc(C(F)(F)F)c3)nn21 [Example 44, 7-Dimethylamino-4-methyl-2-(2-trifluoromethyl-pyridin-4-yl)-4H-pyrazolo[1,5-a]quinazolin-5-one]
13 | < 1 µM | 239 to 242 °C | CCNc1ccc2c(c1)c(=O)n(C)c1cc(-c3ccnc(C(F)(F)F)c3)nn21 [Example 45, 7-Ethylamino-4-methyl-2-(2-trifluoromethyl-pyridin-4-yl)-4H-pyrazolo[1,5-a]quinazolin-5-one]
14 | < 1 µM | > 250 °C | Cn1c(=O)c2cc(O)ccc2n2nc(-c3ccnc(C(F)(F)F)c3)cc12 [Example 48, 7-Hydroxy-4-methyl-2-(2-trifluoromethyl-pyridin-4-yl)-4H-pyrazolo[1,5-a]quinazolin-5-one]
15 | < 1 µM | 152 to 158 °C | CCOc1ccc2c(c1)c(=O)n(C)c1cc(-c3ccnc(C(F)(F)F)c3)nn21 [Example 49, 7-Ethoxy-4-methyl-2-(2-trifluoromethyl-pyridin-4-yl)-4H-pyrazolo[1,5-a]quinazolin-5-one]
16 | < 1 µM | > 250 °C | Cn1c(=O)c2ccc(F)cc2n2nc(-c3ccnc(C(F)(F)F)c3)cc12 [Example 55, 8-Fluoro-4-methyl-2-(2-trifluoromethyl-pyridin-4-yl)-4H-pyrazolo[1,5-a]quinazolin-5-one]
17 | < 1 µM | > 250 °C | CNc1ccc2c(=O)n(C)c3cc(-c4ccnc(C(F)(F)F)c4)nn3c2c1 [Example 61, 4-Methyl-8-methylamino-2-(2-trifluoromethyl-pyridin-4-yl)-4H-pyrazolo[1,5-a]quinazolin-5-one]
18 | < 1 µM | 112 to 117 °C | Cn1c(=O)c2ccc(N3CCC(O)CC3)cc2n2nc(-c3ccnc(C(F)(F)F)c3)cc12 [Example 63, 8-(4-Hydroxy-piperidin-1-yl)-4-methyl-2-(2-trifluoromethyl-pyridin-4-yl)-4H-pyrazolo[1,5-a]quinazolin-5-one]
19 | < 1 µM | > 250 °C | CN(C)c1ccc2c(=O)n(C)c3cc(-c4ccnc(C(F)(F)F)c4)nn3c2c1 [Example 64, 8-Dimethylamino-4-methyl-2-(2-trifluoromethyl-pyridin-4-yl)-4H-pyrazolo[1,5-a]quinazolin-5-one]
20 | < 1 µM | > 250 °C | Cn1c(=O)c2ccc(N3CC(O)C3)cc2n2nc(-c3ccnc(C(F)(F)F)c3)cc12 [Example 68, 8-(3-Hydroxy-azetidin-1-yl)-4-methyl-2-(2-trifluoromethyl-pyridin-4-yl)-4H-pyrazolo[1,5-a]quinazolin-5-one]
21 | < 1 µM | > 250 °C | Cn1c(=O)c2ccc(N3CCC(O)C3)cc2n2nc(-c3ccnc(C(F)(F)F)c3)cc12 (centres unmarked) [Example 70, 8-(3-Hydroxy-pyrrolidin-1-yl)-4-methyl-2-(2-trifluoromethyl-pyridin-4-yl)-4H-pyrazolo[1,5-a]quinazolin-5-one]
22 | < 1 µM | > 250 °C | Cn1c(=O)c2ccc(C(N)=O)cc2n2nc(-c3ccnc(C(F)(F)F)c3)cc12 [Example 77, 4-Methyl-5-oxo-2-(2-trifluoromethyl-pyridin-4-yl)-4,5-dihydro-pyrazolo[1,5-a]quinazoline-8-carboxylic Acid Amide]
23 | < 1 µM | > 250 °C | CNC(=O)c1ccc2c(=O)n(C)c3cc(-c4ccnc(C(F)(F)F)c4)nn3c2c1 [Example 78, 4-Methyl-5-oxo-2-(2-trifluoromethyl-pyridin-4-yl)-4,5-dihydro-pyrazolo[1,5-a]quinazoline-8-carboxylic Acid Methylamide]
24 | < 1 µM | 240 to 245 °C | CCN(CC)C(=O)c1ccc2c(=O)n(C)c3cc(-c4ccnc(C(F)(F)F)c4)nn3c2c1 [Example 80, 4-Methyl-5-oxo-2-(2-trifluoromethyl-pyridin-4-yl)-4,5-dihydro-pyrazolo[1,5-a]quinazoline-8-carboxylic Acid Diethylamide]
25 | < 1 µM | > 250 °C | Cn1c(=O)c2ccc(C(=O)N3CCOCC3)cc2n2nc(-c3ccnc(C(F)(F)F)c3)cc12 [Example 81, 4-Methyl-8-(morpholine-4-carbonyl)-2-(2-trifluoromethyl-pyridin-4-yl)-4H-pyrazolo[1,5-a]quinazolin-5-one]
26 | < 1 µM | > 250 °C | Cn1c(=O)c2ccc(C(=O)N3CCCC3)cc2n2nc(-c3ccnc(C(F)(F)F)c3)cc12 [Example 82, 4-Methyl-8-(pyrrolidine-1-carbonyl)-2-(2-trifluoromethyl-pyridin-4-yl)-4H-pyrazolo[1,5-a]quinazolin-5-one]
27 | < 1 µM | > 250 °C | Cn1c(=O)c2c(F)cccc2n2nc(-c3ccnc(C(F)(F)F)c3)cc12 [Example 85, 6-Fluoro-4-methyl-2-(2-trifluoromethyl-pyridin-4-yl)-4H-pyrazolo[1,5-a]quinazolin-5-one]
28 | < 1 µM | > 250 °C | COc1cc2c(=O)n(C)c3cc(-c4ccnc(C(F)(F)F)c4)nn3c2cc1OC [Example 87, 7,8-Dimethoxy-4-methyl-2-(2-trifluoromethyl-pyridin-4-yl)-4H-pyrazolo[1,5-a]quinazolin-5-one]
